Columns and labels:
[1] = test system: bas1-DphyB-4 and phyB-4 seedlings; assay: Feeding experiment: metabolism of deuterium-labeled and non-labeled brassinolide in aseptically grown seedlings, GC-MS; type: in vivo; details: Arabidopsis seedlings, one day, GC-MS comparison with authentic sample
Text: To test the hypothesis that overexpression of bas1 gene product results in hydroxylation of brassinolide, metabolism of deuterium-labeled and non-labeled brassinolide was examined using aseptically grown seedlings. As possible hydroxylated metabolites of brassinolide, 14-hydroxybrassinolide, 20-hydroxybrassinolide, 25-hydroxybrassinolide, 26-hydroxybrassinolide, and 28-hydroxybrassinolide were chemically synthesized. The possible hydroxylated brassinolide fractions from the feeding experiments were analyzed by gas chromatograph-mass spectrometry (GC-MS) after conversion to methaneboronate-trimethylsilyl derivatives.
In preliminary experiments, bas1-DphyB-4 and phyB-4 seedlings were fed ^2H6-labeled brassinolide (d6-BL) and incubated for one day. […] When BL was fed to the seedlings, 26-OHBL was detected as a metabolite of BL. […] When d6-BL was fed to the seedlings, fragment ions such as m/z 625, 583 and 570 were detected. […]
For brassinosteroid measurements, plants were grown on soil (Neff and Chory, supra) in short day conditions (8 hours of light, […] of dark) for five weeks before rosettes were harvested in liquid nitrogen. […] Brassinosteroids were analyzed according to the methods described by (S. Fujioka et al., Plant Cell 9:1951-1962, 1997). […]
Each fraction was subjected to GC-MS analysis after derivatization. 26-OHBL was detected from retention time of 2-3 min. […]

[2] = test system: Arabidopsis seedlings; assay: Brassinolide dose response of seedling hypocotyls and cotyledon petioles; type: in vivo
Text: FIGS. 3A-C are graphs showing the dose response of hypocotyls of seedlings to brassinosteroid as measured after 6 days on varying levels of brassinolide. […] Col-O=closed circles; phyB-4=open diamonds; bas1-DphyB-4=open circles; BAS1′ antisense line=closed diamonds; and det2-1=open triangles. Error bars represent one standard error from the mean. When no error bars are visible, they are smaller than the symbols.
By contrast, a brassinosteroid biosynthesis mutant det2-1 produced petioles that were shorter than the wild type in the light, while the petioles of phyB-4 mutants were longer than the wild type in the light. In both cases, these phenotypes were rescued by exposure to increasing amounts of brassinosteroids.
(CIDtech Research Inc., Mississauga, Ontario, Canada) 2 mM Brassinolide stock was made by dissolving in 95% (v/v) EtOH and stored at −20° C. The 1 μM solution was made by a 1:2000 fold dilution of the 2 mM stock in standard growth media. All other concentrations including the negative control contained the same amount of EtOH. Light conditions for fluence responses in red and blue light and seedling measurements were performed as described in Neff and Chory, supra. An E30LED growth chamber (Percival Scientific, Boone, IA) supplied far-red light. Far-red fluences were measured with a portable spectroradiometer (model LI-1800, Li-Cor, Inc., Lincoln, Nebr.).

| Compound | metabolite detected after feeding to seedlings [1] | hypocotyl hyper-responsivity to brassinolide ([2]; BAS1 antisense lines, grown in the dark, 6 days) | hypocotyl response to brassinolide ([2]; BAS1 antisense lines, grown in the light, 6 days) | rosette response to brassinolide ([2]; plants overexpressing bas1 (bas1-DphyB-4), white light) |
| --- | --- | --- | --- | --- |
| 2H6-labeled brassinolide [d6-BL] | d6-26-OHBL |  |  |  |
| CC(C)[C@H](C)[C@@H](O)[C@H](O)[C@@H](C)[C@H]1CC[C@H]2[C@@H]3COC(=O)[C@H]4C[C@H](O)[C@H](O)C[C@]4(C)[C@H]3CC[C@]12C [BL, brassinolide] | 26-OHBL | not | hyper-responsivity | insensitive |

Reference: patent US6534313B1, “Genetically modified plants having modulated brassinosteroid signaling” (The Salk Institute for Biological Studies, priority 1999, dated 2003)
